# Assay results as given in patent publication US9301999B2 (priority 2009, dated 2016).
# Entries after “also recorded” stand apart in the source; their conditions may differ. Where no end group is shown, it is not given here.
# How the values were obtained:
# anti-rPA IgG = tested on: anti-rPA IgG; parameters: species or system female C3H/HeN mice; settings: mouse, in vivo
# anti-PA IgG = tested on: anti-PA IgG; parameters: species or system Female C3H/HeN mice; settings: mouse, in vivo
# anthrax lethal toxin = tested on: anthrax lethal toxin; parameters: species or system C3H/HeN female mice; settings: mouse, in vivo
# anti-rPA serum IgG = tested on: anti-rPA serum IgG; parameters: species or system C3H/HeN female mice; settings: mouse, in vivo
# MC/9 mast cells = format: cell-based, murine; parameters: MCD10: concentration of peptide necessary to induce degranulation of 10% of mast cells: unit not given here
substance,measurement,setting,value
INLKALAALAKKIL-NH2 [Mastoparan],serum anti-rPA IgG titer versus mice immunized with rPA alone,anti-rPA IgG,significantly greater
same,adjuvant activity as determined by serum anti-PA IgG endpoint titers,anti-PA IgG,provided adjuvant activity
same,lethal toxin neutralizing antibody response in serum,anthrax lethal toxin,neutralized anthrax lethal toxin; also recorded: significantly increased versus all other groups
same,"serum anti-PA IgG geometric means titers (GMT), adjuvant activity",anti-rPA serum IgG,significantly increased
same,% MC/9 Degranulation,MC/9 mast cells,66.60%
same,MCD10: concentration of peptide necessary to induce degranulation of 10% of mast cells,MC/9 mast cells,33.07
same,mast cell degranulation (β-hexosaminidase released into the culture medium),MC/9 mast cells,induced mast cell degranulation
